This passage reports MIC, IC50 and MCC results from ChEMBL document CHEMBL4304836, “N-Trifluoromethylthiolated Sulfonimidamides and Sulfoximines: Anti-microbial, Anti-mycobacterial, and Cytotoxic Activity” (ACS Med Chem Lett, 2019).

Test [1] relates to Staphylococcus aureus. Kind of test: Antibacterial activity against Staphylococcus aureus ATCC 25923 assessed as reduction in bacterial cell growth incubated for 24 hrs by two fold serial dilution. Format: functional. The conditions noted are these: ATCC 25923, 24 h.
For test [2], the system named is Bacillus subtilis. As to the kind of experiment: Antibacterial activity against Bacillus subtilis ATCC 6051 assessed as reduction in bacterial cell growth incubated for 24 hrs by two fold serial dilution. As to conditions: ATCC 6051, 24 h. The class given is functional.
Test [3] has as its system Escherichia coli. Kind of test: Antibacterial activity against Escherichia coli ATCC 25922 assessed as reduction in bacterial cell growth incubated for 24 hrs by two fold serial dilution. Format: functional. The conditions noted are these: ATCC 25922, 24 h.
Test [4] concerns Pseudomonas aeruginosa. Kind of test: Antibacterial activity against Pseudomonas aeruginosa ATCC 27853 assessed as reduction in bacterial cell growth incubated for 24 hrs by two fold serial dilution. The conditions noted are these: ATCC 27853, 24 h. Format: functional.
Test [5] relates to HepG2. As to the kind of experiment: Cytotoxicity against human HepG2 cells incubated for 6 hrs by MTT assay. The class given is functional, cell-based. As to conditions: HepG2, 6 h. On the technique in general: Tetrazolium dyes change colour on reduction, which living cells bring about.
Test [6] relates to HepG2. As to the kind of experiment: Cytotoxicity against human HepG2 cells assessed as cell membrane leakage by measuring LDH released incubated for 6 hrs by spectrophotometry. The class given is functional. As to conditions: HepG2, 6 h. (Release of lactate dehydrogenase indicates damage to the cell membrane.)
Test [7] deals with Mycobacterium tuberculosis. Kind of test: Antimycobacterial activity against Mycobacterium tuberculosis H37Rv assessed as reduction in bacterial cell growth incubated for 14 days by broth dilution method. Format: functional. As to conditions: 336 h. In general terms: In broth dilution the organism is exposed to a series of concentrations in liquid medium.
Test [8] relates to Mycobacteroides abscessus. Kind of test: Antimycobacterial activity against Mycobacterium abscessus ATCC 19977 assessed as reduction in bacterial cell growth incubated for 3 days by broth dilution method. The class given is functional. As to conditions: ATCC 19977, 72 h.

Each structure is given as a SMILES string. Converted amounts (≈) assume the structure as drawn.

As a reminder, the MIC is the smallest concentration in the dilution series that meets the test's criterion for growth inhibition. As usually defined, the IC50 is the concentration that gives 50% inhibition. The low end stands for higher potency, the high end for lower potency. In the case of `CS(=N)(=O)c1ccccc1` (configuration not stated), the MIC in test [1], in test [2], in test [3] and in test [4] was above 512 µg/mL throughout. This compound also returned an IC50 in test [5] above 100 µg/mL. Further, in test [6], the MCC came out at 100 µg/mL.

As to `Cc1ccc(S(=O)(=NSC(F)(F)F)N2CCCC2)cc1` (configuration not stated), the MIC in test [1] is 64 µg/mL (≈ 197 µM); in test [2] it was 32 µg/mL (≈ 98.6 µM); in test [3], above 512 µg/mL; in test [4], above 512 µg/mL.

Take `O=S(=NSC(F)(F)F)(c1ccccc1)N1CCCC1` (configuration not stated): the MIC in test [7] is 4 to 8 µg/mL (≈ 12.9 to 25.8 µM); in test [1], 32 µg/mL (≈ 103 µM); in test [2] it was 8 µg/mL (≈ 25.8 µM); in test [3] it was 128 µg/mL (≈ 412 µM); in test [4], 512 µg/mL (≈ 1650 µM); in test [8] it was above 64 µg/mL. The compound also returned an IC50 in test [5] of 15 µg/mL (≈ 48.3 µM). Moreover, the MCC in test [6] was determined as 0.1 µg/mL.

Take `CCN(CC)S(=O)(=NSC(F)(F)F)c1ccc([N+](=O)[O-])cc1` (configuration not stated): the MIC in test [7] was 16 to 32 µg/mL (≈ 44.8 to 89.5 µM); in test [1] it was 32 to 64 µg/mL (≈ 89.5 to 179 µM); in test [2] it was 16 to 32 µg/mL (≈ 44.8 to 89.5 µM); in test [4] it was above 512 µg/mL; in test [8], 16 to 32 µg/mL (≈ 44.8 to 89.5 µM).

`O=S(=NSC(F)(F)F)(c1ccccc1)c1ccccc1`: the MIC is 4 to 8 µg/mL (≈ 12.6 to 25.2 µM) in test [7]; 32 µg/mL (≈ 101 µM) in test [1]; 16 µg/mL (≈ 50.4 µM) in test [2]; 256 µg/mL (≈ 807 µM) in test [3]; 256 µg/mL (≈ 807 µM) in test [4]; above 64 µg/mL in test [8]. The same compound had a half-maximal inhibitory concentration (IC50) in test [5] of 90 µg/mL (≈ 284 µM). Besides, the MCC in test [6] came out at 1 µg/mL.

With `Cc1ccc(S(=O)(=NSC(F)(F)F)N2CCCCC2)cc1` (configuration not stated), the MIC in test [7] is 4 to 8 µg/mL (≈ 11.8 to 23.6 µM); in test [8] it was above 64 µg/mL. The IC50 in test [5] is 65 µg/mL (≈ 192 µM). For the same compound, in test [6], the MCC was 0.1 µg/mL.

Regarding `CS(=O)(=NSC(F)(F)F)c1ccccc1` (configuration not stated), the MIC in test [7] is 4 to 8 µg/mL (≈ 15.7 to 31.3 µM); in test [1], 16 µg/mL (≈ 62.7 µM); in test [2], 16 µg/mL (≈ 62.7 µM); in test [3] it was 16 µg/mL (≈ 62.7 µM); in test [4], 128 µg/mL (≈ 501 µM); in test [8] it was above 64 µg/mL. In test [5], this compound yielded an IC50 of 15 µg/mL (≈ 58.8 µM). For the same compound, in test [6], the MCC came out at 0.1 µg/mL.

In the case of `O=[N+]([O-])c1ccc(S(=O)(=NSC(F)(F)F)N2CCCC2)cc1` (configuration not stated), the minimum inhibitory concentration (MIC) in test [7] was 16 to 32 µg/mL (≈ 45 to 90 µM); in test [1], 32 µg/mL (≈ 90 µM); in test [2], 64 µg/mL (≈ 180 µM); in test [3] it was above 512 µg/mL; in test [4], above 512 µg/mL; in test [8], 16 to 32 µg/mL (≈ 45 to 90 µM).

`O=S(=NSC(F)(F)F)(c1ccccc1)N1CCOCC1` (configuration not stated): the MIC amounted to 32 µg/mL (≈ 98 µM) in test [1], 32 µg/mL (≈ 98 µM) in test [2], 128 µg/mL (≈ 392 µM) in test [3] and 256 µg/mL (≈ 784 µM) in test [4].

As for `N=S(=O)(c1ccc([N+](=O)[O-])cc1)N1CCCC1` (configuration not stated), the MIC in test [7] and in test [8] was above 64 µg/mL each time.

Regarding `O=[N+]([O-])c1ccc(S(=O)(=NSC(F)(F)F)N2CCOCC2)cc1` (configuration not stated), the MIC in test [7] was 16 to 32 µg/mL (≈ 43.1 to 86.2 µM); in test [1] it was 128 to 256 µg/mL (≈ 345 to 689 µM); in test [2], 128 to 256 µg/mL (≈ 345 to 689 µM); in test [3], 128 to 256 µg/mL (≈ 345 to 689 µM); in test [4], 256 µg/mL (≈ 689 µM); in test [8] it was 32 to 64 µg/mL (≈ 86.2 to 172 µM).

On to `Cc1ccc(S(=O)(=NSC(F)(F)F)N2CCOCC2)cc1` (configuration not stated), for which the MIC lay in the range of 8 to 16 µg/mL (≈ 23.5 to 47 µM) in test [7] and 16 to 32 µg/mL (≈ 47 to 94 µM) in test [8].

As for `CS(=O)(=NC(F)(F)F)c1ccccc1` (configuration not stated), the MIC in test [7] was above 64 µg/mL; in test [1], above 512 µg/mL; in test [2] it was above 512 µg/mL; in test [3] it was above 512 µg/mL; in test [4] it was above 512 µg/mL. The IC50 in test [5] was above 200 µg/mL.

Take `O=[N+]([O-])c1ccc(S(=O)(=NSC(F)(F)F)N2CCCCC2)cc1` (configuration not stated): the MIC was above 64 µg/mL in test [7], 32 µg/mL (≈ 86.6 µM) in test [1], 64 µg/mL (≈ 173 µM) in test [2] and 32 to 64 µg/mL (≈ 86.6 to 173 µM) in test [8].

As to `N=S(=O)(c1ccccc1)N1CCOCC1` (configuration not stated), the minimum inhibitory concentration (MIC) in test [7] and in test [8] was above 64 µg/mL throughout.

`O=S(=NC(F)(F)F)(c1ccccc1)c1ccccc1`: the MIC in test [7] is above 64 µg/mL; in test [1], above 512 µg/mL; in test [2] it was above 512 µg/mL; in test [3], above 512 µg/mL; in test [4], above 512 µg/mL. This compound came in with an IC50 in test [5] of 200 µg/mL (≈ 701 µM). Besides, the MCC in test [6] was 200 µg/mL.
